Measurements published in US7960433B2, “Treatment of chemokine mediated diseases” (Schering Corporation, priority 2002, dated 2011).

What was measured:
IL-1β = assay: SCW mouse knee model: IL-1β production by ex vivo patellar organ culture; format: in vivo, female C57BL/6J mice
Method: (§1) The method described by Lubberts et al, 1998 was used for these studies, with some modifications. Female 8-12 week old C57BL/6J animals were fasted overnight and dosed orally with Compound A, indomethacin, or a combination of these agents suspended in methylcellulose one hour prior to a single intra-articular injection of 6 μl containing 25 μg of bacterial SCW (4.32 mg/ml rhammose; Lee Laboratories, Grayson, Ga.) in saline into the right knee joint. The left knee joint received an injection of 6 μl of saline at the same time. In other experiments, a neutralizing rat anti-mouse TNFα antibody or matched rat IgG isotype control was administered intraperitoneally two hours prior to SCW injection and Compound A or methylcellulose vehicle was orally administered one hour prior to SCW injection. Knee swelling measurements were performed 2 hours after SCW injection using a dial-gauge caliper ([…], Athol, Mass.) by measuring the difference in swelling between the right and left knee joints. Patellar organ cultures for assessment of synovial cytokine and chemokine and prostaglandin levels were prepared at 2 hours after SCW injection and established as described (Lubberts et al, 1998), using ELISA kits obtained from R&D Systems (Minneapolis, Minn.). Statistical analysis was performed using the Student's t-test, with p<0.05 considered to be indicative of statistical significant differences between groups.

[1] = system: carrageenan-induced paw edema; assay: Carrageenan-induced rat paw edema model: paw volume; format: in vivo, male Sprague-Dawley rats; settings: oral, 1 hr before carrageenan, paw volume at 3 h; suboptimal doses: Compound A 1 mg/kg, indomethacin 0.5 mg/kg, betamethasone 0.05 mg/kg, alone or combined
Method: (§2) Carrageenan (0.05 ml of an 1% solution in saline) was injected into one hindpaw of male Sprague-Dawley rats. […] The increase in paw volume that occurred between the two timepoints was determined for each group. Rats received Compound A: [drawing 179] (see Example 405 of WO 02/083624) or standard drugs in methylcellulose vehicle by the oral route, 1 hr before carrageenan injection. The percentage by which the edematous response was inhibited was calculated by comparing the increase in paw edema of drug-treated rats to that of vehicle-treated controls. To determine neutrophil accumulation in the paws, rats were sacrificed at 3 hrs and myeloperoxidase (MPO) activity was measured from inflammatory fluid expressed from the hindpaw using a colorimetric assay (Bradley et al., 1982). PGE2 production in the hindpaw was assessed by ELISA (R&D Systems, Minneapolis, Minn.).

[2] = system: SCW-induced knee swelling; assay: Streptococcal cell wall-induced mouse knee swelling model: knee swelling; format: in vivo, female C57BL/6J mice; settings: 2 hours after SCW injection
Method: as §1

PGE2 [3] = assay: SCW mouse knee model: PGE2 levels in patellar organ culture; format: in vivo, female C57BL/6J mice
Method: as §1, with “Statistical analysis was performed using the Student's t-test, with p<0.05 considered to be indicative of statistical significant differences between groups.” left out

[4] = system: myeloperoxidase (MPO) activity; assay: Carrageenan-induced rat paw edema model: MPO activity in hindpaw inflammatory fluid (neutrophil accumulation); format: in vivo, male Sprague-Dawley rats; settings: oral, 3 hrs after carrageenan; Compound A 1 mg/kg, indomethacin 0.5 mg/kg, alone or combined
Method: Carrageenan (0.05 ml of an 1% solution in saline) was injected into one hindpaw of male Sprague-Dawley rats. Paw volumes (ml) were measured by a water displacement plethysmometer prior to and 3 h after the injection of carrageenan. The increase in paw volume that occurred between the two timepoints was determined for each group. Rats received Compound A:
[drawing 179] (see Example 405 of WO 02/083624) or standard drugs in methylcellulose vehicle by the oral route, 1 hr before carrageenan injection. The percentage by which the edematous response was inhibited was calculated by comparing the increase in paw edema of drug-treated rats to that of vehicle-treated controls. To determine neutrophil accumulation in the paws, rats were sacrificed at 3 hrs and myeloperoxidase (MPO) activity was measured from inflammatory fluid expressed from the hindpaw using a colorimetric assay (Bradley et al., 1982). PGE2 production in the hindpaw was assessed by ELISA (R&D Systems, Minneapolis, Minn.).

PGE2 [5] = assay: Carrageenan-induced rat paw edema model: PGE2 production in the hindpaw (ELISA); format: in vivo, male Sprague-Dawley rats; settings: oral; Compound A 1 mg/kg, betamethasone 0.05 mg/kg, alone or combined
Method: as §2

[6] = indomethacin alone (2 mg/kg oral)

In the case of `COc1ccc2c(c1)c(CC(=O)O)c(C)n2C(=O)c1ccc(Cl)cc1` [indomethacin, reference compound], the “inhibition of IL-1β production by ex vivo patellar organ culture” value (“inhibition of IL-1β production” for short) (IL-1β; [6]) is reported as 11%, the “inhibition of paw edema” value [1] is reported as 0% and the “inhibition of knee swelling” value ([2]; indomethacin 2 mg/kg oral alone) is reported as 42%. For the same compound, the “inhibition of PGE2 levels in patellar organ culture” value (PGE2 [3]; [6]) was 89% and the “inhibition of MPO activity in the hindpaw” value [4] was −58%.

For `C[C@H]1C[C@H]2[C@@H]3CCC4=CC(=O)C=C[C@]4(C)[C@@]3(F)[C@@H](O)C[C@]2(C)[C@@]1(O)C(=O)CO` [betamethasone, reference compound], the “inhibition of paw edema” value [1] was 32% and the “inhibition of paw PGE2 levels” value (PGE2 [5]) was 31%.

For `CC[C@@H](Nc1c(Nc2cccc(C(=O)N(C)C)c2O)c(=O)c1=O)c1ccc(C)o1` [Compound A], the “inhibition of IL-1β production” value (IL-1β; Compound A 10 mg/kg oral, alone or with indomethacin) was 49%, the “inhibition of IL-1β production” value (IL-1β; Compound A 25 mg/kg oral, alone or with indomethacin) was 64% and the “inhibition of paw edema” value [1] was 20%. For the same compound, the “inhibition of knee swelling” value ([2]; Compound A 10 mg/kg oral, alone or with indomethacin 2 mg/kg) was 46%, the “inhibition of knee swelling” value ([2]; Compound A 25 mg/kg oral, alone or with indomethacin 2 mg/kg) was 70% and the “inhibition of paw PGE2 levels” value (PGE2 [5]) was 31%. The “inhibition of PGE2 levels in patellar organ culture” value (PGE2 [3]; Compound A alone at 10-25 mg/kg oral) was 34-40% and the “inhibition of MPO activity in the hindpaw” value [4] was 67%.
